# Legend:
# [1] = test system: medial frontal cortex (MFC) injury or sham; experiment: Example 4: Digiscan locomotor activity boxes (center time); type: in vivo, Sprague-Dawley rats
# Excerpt: 60 male Sprague-Dawley rats weighing 290-310 g at the time of injury were used in this experiment. Food and water were provided ad libidum before and after surgery. Animals were handled and weighed daily from their arrival, seven days pre-surgery, to brain extraction three weeks post-surgery. Animals were handled in squads of 12, with n=10 per experimental condition. All animal procedures were approved by the Emory University Animal Care and Use Committee, Protocol #131-2002.
# Isofluorane anesthesia was induced for four minutes and 45 seconds at 5% and maintained at 2.5%. Normal body temperature was maintained with a surgical heating pad placed beneath the sterile dressings. The scalp incision area was shaved and sterilized with iodine and isopropanol. A midline incision was made along the scalp and the fascia cleared to expose the surface of the skull. Medial, lateral, and dorsal stereotaxic coordinates were determined at bregma, and a 5-7 mm diameter bilateral craniotomy was performed mid-sagitally, 3 mm anterior to bregma. […] Sutures were used to close the incision after bleeding ceased. Animals were placed in individual heated, clean recovery cages until they awakened, and were returned to clean individual home cages with accessible moistened food pellets. Sham animals were anesthetized, and an incision was made at the top of the head. The fascia was cleared to expose bregma, then the incision was sutured closed. Sham surgeries were matched to lesion surgeries for all experimental conditions.
# Sham (S) and lesion (L) animals were randomly assigned to one of three treatment groups: vehicle (VS, VL), acute withdrawal (AWS, AWL), and tapered withdrawal (TWS, TWL). […] Tapering was induced as halved dosages over the last two days of treatment. Dilutions for TW treatments were made with HBC stock. All injections were administered intraperitoneally at one hour post-injury, and subcutaneously at six hours post-injury and every 24 hours through the end of the treatment cycle. Five sets of 12 animals each were used, for a total n=10 for each experimental group over the entire experiment. Of these animals, all were used to acquire behavioral data, four samples were used for protein analysis, and six samples were used for histological analysis for each test condition.
# Random order, blinded testing occurred under red light in a quiet environment one day before injury, and one and seven days post-withdrawal. Up to four animals were tested using the Digiscan Activity Monitoring System (AccuScan Instruments, inc. Columbus, Ohio) in each trial, with a total of three trials per test day. Rats were placed in the furthest left corner of the Digiscan Activity Box. At that time, the toggle switch was flipped to ‘on’. At exactly five minutes the computer ceased testing, assuring that all tests were the same length regardless of start time. Files were saved according to date and trial number, and the number of fecal boli recorded. Activity boxes were cleaned with 70% ethanol and dried between trials. Center time was defined by the computer as the amount of time the animal spent exploring the activity box away from the corners.
# All results were expressed as the mean plus or minus the standard error of the mean. Statistical significance was set at p<0.05 for two-tailed tests, and data were analyzed using one-way analysis of variance (ANOVA) followed by LSD post hoc tests. […]
# traumatic brain injury = experiment: Example 2: dose response, Morris water maze after TBI, cyclodextrin vehicle; type: in vivo
# Experimental: Beginning one week after surgery, spatial learning ability was assessed in the Morris water maze (MWM) task described previously. Each animal was tested for a total of 10 days in two 5-day trial blocks (acquisition and retention respectively). Animals were placed in the pool (nose facing the pool-wall) at one of four randomly determined starting positions (e.g.: N, S, E, W). Each rat was allowed to swim freely in the pool until it found the hidden platform or until 90 seconds had elapsed. […] Once on the platform, animals were allowed to rest for 10 seconds and then removed from the pool and placed near a heat lamp for warmth. Each rat was given two trials per day with a 20-second intertrial interval (ITI). The dependent measures for this task were latency to find the hidden platform and swim strategy (e.g., percent of time spent in the inner vs. outer annuli). Swim speed measures were recorded daily in order to delineate motor dysfunction from learning impairment.
# Surgery to induce a traumatic brain injury was performed as outlined in Example 1. Behavior testing using the Morris Water Maize was performed as outlined in Example 1 and the methods for the tactical adhesive removal were performed.
# [2] = test system: bilateral contusions of the medial prefrontal cortex; experiment: Example 1: Morris water maze (MWM) task after TBI; type: in vivo, Sprague-Dawley rats
# Experimental: Male Sprague-Dawley rats (300 g) were housed individually in wire cages and kept on a reverse light-dark cycle (0800-2000 h). […] All procedures involving animals conformed to guidelines set forth in the Guide for the Care and Use of Laboratory Animals (U.S. Department of Health and Human Services, Pub no. 85-23, 1985) and were approved by the Emory University Institutional Animal Care and Use Committee.
# Bilateral contusions of the medial prefrontal cortex were created by a pneumatic impactor device as previously described. Briefly, rats were given anesthetized with ketamine/xylazine (90 mg/kg; 10 mg/kg) and placed in a stereotaxic apparatus. A craniectomy (diameter 6 mm) was made over the midline of the prefrontal cortex with its center 1.5 mm AP to bregma. After removal of the bone, the tip of the impactor (diameter 5 mm) was moved to +3.0 mm AP; 1.0 mm ML (from bregma), and checked for adequate clearance. Trauma was produced by pneumatically activating the piston to impact −2.0 mm DV (from dura) at a velocity of 3 m/s with a brain contact time of 0.5 seconds.
# Control animals received injections of vehicle at similar time-points. Animals were coded with regard to surgery and treatment to prevent experimenter bias during behavioral testing and histological examination.
# Experienced individuals who were blind to treatment conditions of the study conducted all histological and behavioral analyses. All data were tested for normality and homoschedasticity before being analyzed by parametric analysis of variance (ANOVA). MWM results were analyzed using separate mixed-factorial (4 groups×5 days) analysis of variance (ANOVA) on each of the two 5-day testing periods (acquisition and retention respectively). Results of the BSN task were analyzed using the mixed-factorial ANOVA (4 groups×2 post-injury trials). Histological comparisons on mean densitometry recordings, area measurements, and cell counts were made using a one-way ANOVA. All between-group comparisons were made using multiple Tukey post-hoc tests (p<0.05) when the overall ANOVA was significant ([…]) between groups. Pearson r coefficients were calculated to determine whether significant correlations could be detected between histological (e.g., lesion size and cellular density) and behavioral parameters (e.g., acquisition and retention of the MWM task and measures of sensory neglect).
# Beginning one week after surgery, spatial learning ability was assessed in the Morris water maze (MWM) task described previously. […] Animals were placed in the pool (nose facing the pool-wall) at one of four randomly determined starting positions (e.g.: N, S, E, W). […] Swim speed measures were recorded daily in order to delineate motor dysfunction from learning impairment.
smiles,measurement,setting,value
"CC(=O)[C@H]1CC[C@H]2[C@@H]3CCC4=CC(=O)CC[C@]4(C)[C@H]3CC[C@]12C [progesterone, pregn-4-ene-3,20-dione]",center time,"[1]; acute withdrawal, lesion (AWL), one and seven days post-withdrawal",increased center time compared to VL animals
same,center time,"[1]; acute withdrawal, sham (AWS), one day post-withdrawal",significantly less center time compared to other shams
same,center time,"[1]; sham groups (AWS, TWS, VS), seven days post-withdrawal",all sham animals spent equivalent center time
same,center time,"[1]; tapered withdrawal, lesion (TWL), one and seven days post-withdrawal",increased center time over AWL animals
same,center time,"[1]; tapered withdrawal, sham (TWS), one day post-withdrawal",increased center time at one day compared to VS animals
same,Morris water maze performance,traumatic brain injury; high dose 32 mg/kg in a cyclodextrin-containing vehicle,did not show any beneficial effect
same,Morris water maze performance,traumatic brain injury; low dose 8 mg/kg in a cyclodextrin-containing vehicle,consistent improvement in Morris water maze performance
same,Morris water maze performance,traumatic brain injury; moderate dose 16 mg/kg in a cyclodextrin-containing vehicle,consistent improvement in Morris water maze performance
same,"MWM spatial learning performance, second 5-day trial block (retention)","[2]; 4 mg/kg in peanut oil, 5 days (LP5)",improved spatial learning performance
same,"MWM spatial learning performance, initial 5-day acquisition phase","[2]; 4 mg/kg in peanut oil, LP3 and LP5 (all injured groups)",deficits in spatial learning performance as compared to control animals
same,thigmotaxic (wall-hugging) swim patterns in MWM,"[2]; 4 mg/kg, 5 days (LP5), last 2 days of second phase of MWM testing",reduction of thigmotaxic behavior
same,swim speed in MWM,"[2]; 4 mg/kg, LP3 and LP5, any day of testing",no between-group differences on swim speed measurements
